This test concerns the target T1, acetylcholine muscarinic M1 receptor (Homo sapiens, UniProt P11229).
T1 construct: expressed in transfected cells; host or cells: CHOnfat cells (CHO cells with an NFAT reporter) expressing hM1, kept under Geneticin selection
T1 sequence (P11229 1-460): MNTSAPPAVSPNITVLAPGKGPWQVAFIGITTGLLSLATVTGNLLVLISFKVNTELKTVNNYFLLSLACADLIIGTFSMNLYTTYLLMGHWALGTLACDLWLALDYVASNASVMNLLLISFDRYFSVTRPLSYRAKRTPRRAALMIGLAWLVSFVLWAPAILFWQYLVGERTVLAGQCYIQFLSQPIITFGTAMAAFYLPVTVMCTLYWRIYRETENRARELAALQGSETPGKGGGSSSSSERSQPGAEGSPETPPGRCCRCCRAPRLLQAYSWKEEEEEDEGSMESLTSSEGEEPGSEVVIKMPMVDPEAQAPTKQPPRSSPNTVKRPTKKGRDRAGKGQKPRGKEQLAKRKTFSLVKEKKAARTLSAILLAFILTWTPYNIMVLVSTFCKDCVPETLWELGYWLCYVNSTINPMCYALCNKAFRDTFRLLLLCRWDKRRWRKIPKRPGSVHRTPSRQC
Kind of test: muscarinic FLIPR assay: intracellular calcium in CHOnfat/hM1 cells, potentiation of EC20 acetylcholine. The format is cell-based. As to conditions: Table 2; CHOnfat/hM1 cells, FLIPR, EC20 acetylcholine (3 nM final); read-out: M1 Pot. The gist of the method: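 CHOnfat cells stably expressing human M1, Fluo-4AM-loaded, in HBSS with 20 mM HEPES, 2.5 mM probenecid, 1% BSA. Compounds preincubated 4 min (printed "4 mM") before an EC20 acetylcholine challenge (3 nM final). FLIPR intracellular Ca²⁺ signal compared with 3 nM acetylcholine alone to detect potentiation.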
(A change in cytosolic calcium serves as a functional read-out for many receptors and channels.)
Take `CC1c2c(cc(CN3CCC(c4ccncc4)CC3)c3cccnc23)C(=O)N1C1CCCCC1O` (stereo not shown) [Example 161, 8-(2-hydroxycyclohexyl)-9-methyl-5-[(4-pyridin-4-ylpiperidin-1-yl)methyl]-8,9-dihydro-7H-pyrrolo[3,4-h]quinolin-7-one]: the EC50 is 0.65 µM. Consider `O=C1c2cc(CN3CCN(c4cccnc4)CC3)c3cccnc3c2CN1C1CCCCC1O` (stereo not shown) [Example 162, 8-(2-hydroxycyclohexyl)-5-[(4-pyridin-3-ylpiperazin-1-yl)methyl]-8,9-dihydro-7H-pyrrolo[3,4-h]quinolin-7-one], for which the EC50 stood at 0.028 µM. As to `CC1c2c(cc(CN3CCN(c4cccnc4)CC3)c3cccnc23)C(=O)N1C1CCCCC1O` (stereo not shown) [Example 163, 8-(2-hydroxycyclohexyl)-9-methyl-5-[(4-pyridin-3-ylpiperazin-1-yl)methyl]-8,9-dihydro-7H-pyrrolo[3,4-h]quinolin-7-one], the EC50 was 0.52 µM.

With `CC1c2c(cc(CN3CCN(c4cccnc4)CC3)c3cccnc23)C(=O)N1C1CCCCC1O` (stereo not shown) [Example 164, 8-(2-hydroxycyclohexyl)-9-methyl-5-[(4-pyridin-3-ylpiperazin-1-yl)methyl]-8,9-dihydro-7H-pyrrolo[3,4-h]quinolin-7-one], the EC50 came to 0.036 µM.

Take `O=C1c2cc(CN3CCN(c4ccccn4)CC3)c3cccnc3c2CN1C1CCCCC1O` (stereo not shown) [Example 165, 8-(2-hydroxycyclohexyl)-5-[(4-pyridin-2-ylpiperazin-1-yl)methyl]-8,9-dihydro-7H-pyrrolo[3,4-h]quinolin-7-one]: the EC50 amounted to 0.015 µM. For `CC1c2c(cc(CN3CCN(c4ccccn4)CC3)c3cccnc23)C(=O)N1C1CCCCC1O` (stereo not shown) [Example 166, 8-(2-hydroxycyclohexyl)-9-methyl-5-[(4-pyridin-2-ylpiperazin-1-yl)methyl]-8,9-dihydro-7H-pyrrolo[3,4-h]quinolin-7-one], the EC50 was found to be 0.58 µM. Next, `CC1c2c(cc(CN3CCN(c4ccccn4)CC3)c3cccnc23)C(=O)N1C1CCCCC1O` (stereo not shown) [Example 167, 8-(2-hydroxycyclohexyl)-9-methyl-5-[(4-pyridin-2-ylpiperazin-1-yl)methyl]-8,9-dihydro 7H-pyrrolo[3,4-h]quinolin-7-one]: 0.059 µM; `COc1ccc(N2CCN(Cc3cc4c(c5ncccc35)CN(C3CCCCC3O)C4=O)CC2)cc1` (stereo not shown) [Example 168, 8-(2-hydroxycyclohexyl)-5-{[4-(4-methoxyphenyl)piperazin-1-yl]methyl}-8,9-dihydro-7H-pyrrolo[3,4-h]quinolin-7-one]: 0.024 µM. The figure for `COc1ccc(N2CCN(Cc3cc4c(c5ncccc35)C(C)N(C3CCCCC3O)C4=O)CC2)cc1` (stereo not shown) [Example 169, 8-(2-hydroxycyclohexyl)-5-{[4-(4-methoxyphenyl)piperazin-1-yl]methyl}-9-methyl-8,9-dihydro-7H-pyrrolo[3,4-h]quinolin-7-one] is 0.59 µM. Next, `COc1ccc(N2CCN(Cc3cc4c(c5ncccc35)C(C)N(C3CCCCC3O)C4=O)CC2)cc1` (stereo not shown) [Example 170, 8-(2-hydroxycyclohexyl)-5-{[4-(4-methoxyphenyl)piperazin-1-yl]methyl}-9-methyl-8,9-dihydro-7H-pyrrolo[3,4-h]quinolin-7-one]: 0.1 µM; `O=C1c2cc(CN3CCN(c4ccc(F)cc4)CC3)c3cccnc3c2CN1C1CCCCC1O` (stereo not shown) [Example 171, 5-{[4-(4-fluorophenyl)piperazin-1-yl]methyl}-8-(2-hydroxycyclohexyl)-8,9-dihydro-7H-pyrrolo[3,4-h]quinolin-7-one]: 0.023 µM. For `CC1c2c(cc(CN3CCN(c4ccc(F)cc4)CC3)c3cccnc23)C(=O)N1C1CCCCC1O` (stereo not shown) [Example 172, 5-{[4-(4-fluorophenyl)piperazin-1-yl]methyl}-8-(2-hydroxycyclohexyl)-9-methyl-8,9-dihydro-7H-pyrrolo[3,4-h]quinolin-7-one], the EC50 was 0.48 µM. The figure for `CC1c2c(cc(CN3CCN(c4ccc(F)cc4)CC3)c3cccnc23)C(=O)N1C1CCCCC1O` (stereo not shown) [Example 173, 5-{[4-(4-fluorophenyl)piperazin-1-yl]methyl}-8-(2-hydroxycyclohexyl)-9-methyl-8,9-dihydro-7H-pyrrolo[3,4-h]quinolin-7-one] is 0.1 µM.

For the compound `O=C1c2cc(CN3CCN(c4ccccc4)CC3)c3cccnc3c2CN1C1CCCCC1O` (stereo not shown) [Example 174, 8-(2-hydroxycyclohexyl)-5-[(4-phenylpiperazin-1-yl)methyl]-8,9-dihydro-7H-pyrrolo[3,4-h]quinolin-7-one], the EC50 was 0.018 µM. Regarding `CC1c2c(cc(CN3CCN(c4ccccc4)CC3)c3cccnc23)C(=O)N1C1CCCCC1O` (stereo not shown) [Example 175, 8-(2-hydroxycyclohexyl)-9-methyl-5-[(4-phenylpiperazin-1-yl)methyl]-8,9-dihydro-7H-pyrrolo[3,4-h]quinolin-7-one], the EC50 worked out at 0.49 µM.

In the case of `CC1c2c(cc(CN3CCN(c4ccccc4)CC3)c3cccnc23)C(=O)N1C1CCCCC1O` (stereo not shown) [Example 176, 8-(2-hydroxycyclohexyl)-9-methyl-5-[(4-phenylpiperazin-1-yl)methyl]-8,9-dihydro-7H-pyrrolo[3,4-h]quinolin-7-one], the EC50 was determined as 0.093 µM.

These data come from US9206200B2, “N-linked lactam M1 receptor positive allosteric mogulators” (Merck Sharp & Dohme Corp., priority 2011, dated 2015).
